Key:
[1] = molecular target: T1, Human PI3K alpha (Homo sapiens, UniProt P42336); assay: Human PI3K alpha enzyme assay (HTRF); assay type: biochemical; conditions: read-out: PI3Kalpha IC50
T1 construct: His (N); host or cells: SF9 insect cells (baculovirus)
Source text: (§1) The catalytic subunits of PI3Ks are cloned into either pDEST8(p110 alpha) or pDEST10(p110beta, p110delta, and p110gamma) as N-terminal His tagged fusion proteins using the Gateway system (Invitrogen, catalog#11804-010 for pDEST8 and 11806-015 for pDEST10). The sequences are verified before recombinant protein expression using the Baculovirus Expression System with Gateway® Technology. The accession numbers for the subunits are as follows: • p110 alpha (GB:U79143) • p110beta (GB: S67334) • p110delta (GB: U86453) • p110gamma (GB: X83368) • The regulatory subunits of PI3Ks are cloned into pDEST8 as un-tagged protein using the Gateway system (Catalog#11804-010). The sequences are verified before recombinant protein expression using the Baculovirus Expression System with Gateway® Technology. The accession numbers for the subunits are as following: • p85 alpha (GB: BC030815) • p101(GB: AB028925) • VPS34 (accession number GB:BC033004) is cloned into pDEST20—Thombin as N-terminal GST tagged fusion proteins using the Gateway system (Invitrogen, catalog#11804-013). The sequences are verified before recombinant protein expression using the Baculovirus Expression System with Gateway® Technology.
(§2) For expression of the p110 complexes, the p85 (MOI of 4) is co-infected with p110 alpha, beta, and delta respectively (1MOI) in SF9 cells and harvested at 60 hours post co-infection. P110 gamma was infected at 1 MOI and harvested at 60 hours post infection.
(§3) For purification, PI3Ks are purified by Ni-NTA Agarose (Qiagen #30250) followed by Mono Q 10/100 GL (Ge Healthcare #17-5167-01). VPS34 is purified by Glutathione Sepharose 4 Fast Flow (GE Healthcare #17-5132-03) followed by HiTrap Q (GE Healthcare #17-1153-01).
1) Human PI3K alpha enzyme assay method
(§4) 0.5 uL compounds in DMSO are added to wells of a 384 well microtitre plate (Corning 3575). At room temperature: 10 ul PI3K reaction buffer (50 mM Hepes, 5 mM DTT, 150 mM NaCl, 10 mM beta-glycerophosphate, 10 mM MgCl2, 0.25 mM sodium cholate and 0.001% CHAPS, pH 7.00) containing ATP (25 uM, Promega) is added followed immediately by 10 ul PI3K reaction buffer containing di-C8 P1(4,5)P2 (3.5 uM, CellSignals) and PI3Kalpha (0.4875 nM, Millennium Protein Sciences Group) and the mixture is incubated with shaking at room temperature for 30 minutes. Then 5 ul PI3K stop mix (50 mM Hepes, 5 mM DTT, 150 mM NaCl, 0.01% Tween-20, 15 mM EDTA and 25 nM biotin-PI(3,4,5)P3 (Echelon) is added to quench the reaction followed immediately by addition of 5 ul HTRF detection mix (50 mM Hepes, 5 mM DTT, 150 mM NaCl, 0.01% Tween-20, 40 mM KF, 1.0 nM GST:GRP-1 PH domain (Millennium Protein Sciences Group), 15 nM Streptavidin-XL (CisBio) and 0.375 nM anti-GST Eu++ antibody (CisBio) at pH 7.00). The plates are then incubated for 1 hour at room temperature with shaking and then read on a BMG PheraStar Plus reader.
(§5) For the assay methods described above, test compound percent inhibition, at various concentrations, is calculated relative to control (DMSO and EDTA) treated samples. Compound concentration versus percent inhibition curves are fitted to generate IC50 values. One skilled in the art will appreciate that the values generated either as percentage inhibition at a single concentration or IC50 values are subject to experimental variation.

[2] = molecular target: T2, Human PI3K beta (Homo sapiens, UniProt P42338); assay: Human PI3K beta enzyme assay (HTRF); assay type: biochemical; conditions: read-out: PI3 Kbeta IC50
T2 construct: His (N); host or cells: SF9 insect cells (baculovirus)
Source text: as §1, §2, §3, §4
2) Human PI3K beta, delta and gamma isoforms are tested using the procedure described for PI3K alpha above but with the following changes: PI3K beta (5.25 nM), PI3K delta (0.75 nM) and PI3K gamma (5 nM). All isoforms supplied by Millennium Protein Science Group.
as §5

T1 sequence (P42336 whole entry): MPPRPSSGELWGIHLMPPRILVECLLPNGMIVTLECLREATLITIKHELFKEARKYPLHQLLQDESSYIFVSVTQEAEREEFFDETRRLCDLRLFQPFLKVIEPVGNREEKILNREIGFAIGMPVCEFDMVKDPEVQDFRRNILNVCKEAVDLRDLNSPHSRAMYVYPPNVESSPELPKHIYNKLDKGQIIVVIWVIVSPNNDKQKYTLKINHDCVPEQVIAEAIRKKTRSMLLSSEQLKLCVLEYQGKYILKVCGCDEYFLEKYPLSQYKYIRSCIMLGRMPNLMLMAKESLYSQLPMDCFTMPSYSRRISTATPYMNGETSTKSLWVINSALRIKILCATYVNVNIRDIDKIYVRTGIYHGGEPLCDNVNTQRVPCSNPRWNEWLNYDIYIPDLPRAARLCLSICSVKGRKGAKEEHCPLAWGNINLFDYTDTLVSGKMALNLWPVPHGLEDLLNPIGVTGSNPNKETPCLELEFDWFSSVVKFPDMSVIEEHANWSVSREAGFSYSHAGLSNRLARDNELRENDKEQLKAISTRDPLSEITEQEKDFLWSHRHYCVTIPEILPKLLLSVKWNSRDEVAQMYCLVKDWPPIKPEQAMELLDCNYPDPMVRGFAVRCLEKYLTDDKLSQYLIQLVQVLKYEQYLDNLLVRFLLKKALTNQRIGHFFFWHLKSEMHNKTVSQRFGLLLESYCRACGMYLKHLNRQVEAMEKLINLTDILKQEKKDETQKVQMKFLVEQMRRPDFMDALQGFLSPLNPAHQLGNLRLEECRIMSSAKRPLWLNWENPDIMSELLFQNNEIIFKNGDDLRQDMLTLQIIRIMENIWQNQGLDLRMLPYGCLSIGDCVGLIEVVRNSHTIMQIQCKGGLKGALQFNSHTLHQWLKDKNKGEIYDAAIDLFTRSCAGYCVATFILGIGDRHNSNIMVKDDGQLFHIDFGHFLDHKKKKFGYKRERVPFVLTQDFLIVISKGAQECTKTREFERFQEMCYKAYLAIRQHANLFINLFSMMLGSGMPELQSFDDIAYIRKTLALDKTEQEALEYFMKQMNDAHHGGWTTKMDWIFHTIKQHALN
T1 sequence (P27986 whole entry partner): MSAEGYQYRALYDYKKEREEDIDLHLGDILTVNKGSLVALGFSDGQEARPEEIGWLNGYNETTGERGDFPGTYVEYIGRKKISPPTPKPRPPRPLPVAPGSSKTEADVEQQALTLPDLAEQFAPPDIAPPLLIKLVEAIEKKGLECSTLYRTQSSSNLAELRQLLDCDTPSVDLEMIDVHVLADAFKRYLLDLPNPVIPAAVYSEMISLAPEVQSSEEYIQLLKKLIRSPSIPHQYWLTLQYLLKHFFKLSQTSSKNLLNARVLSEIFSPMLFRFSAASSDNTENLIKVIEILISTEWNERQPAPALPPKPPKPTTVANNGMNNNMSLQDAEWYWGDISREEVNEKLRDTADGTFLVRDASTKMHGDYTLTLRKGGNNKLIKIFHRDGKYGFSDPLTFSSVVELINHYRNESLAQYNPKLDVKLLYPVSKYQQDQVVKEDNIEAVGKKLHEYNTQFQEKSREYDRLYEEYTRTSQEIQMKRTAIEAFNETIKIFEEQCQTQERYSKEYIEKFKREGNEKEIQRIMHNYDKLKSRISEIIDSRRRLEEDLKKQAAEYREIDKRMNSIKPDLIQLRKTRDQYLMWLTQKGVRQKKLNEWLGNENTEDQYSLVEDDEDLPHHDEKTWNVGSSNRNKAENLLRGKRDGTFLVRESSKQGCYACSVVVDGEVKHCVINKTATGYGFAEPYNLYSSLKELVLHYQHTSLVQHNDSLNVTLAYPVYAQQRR
T2 sequence (P42338 whole entry): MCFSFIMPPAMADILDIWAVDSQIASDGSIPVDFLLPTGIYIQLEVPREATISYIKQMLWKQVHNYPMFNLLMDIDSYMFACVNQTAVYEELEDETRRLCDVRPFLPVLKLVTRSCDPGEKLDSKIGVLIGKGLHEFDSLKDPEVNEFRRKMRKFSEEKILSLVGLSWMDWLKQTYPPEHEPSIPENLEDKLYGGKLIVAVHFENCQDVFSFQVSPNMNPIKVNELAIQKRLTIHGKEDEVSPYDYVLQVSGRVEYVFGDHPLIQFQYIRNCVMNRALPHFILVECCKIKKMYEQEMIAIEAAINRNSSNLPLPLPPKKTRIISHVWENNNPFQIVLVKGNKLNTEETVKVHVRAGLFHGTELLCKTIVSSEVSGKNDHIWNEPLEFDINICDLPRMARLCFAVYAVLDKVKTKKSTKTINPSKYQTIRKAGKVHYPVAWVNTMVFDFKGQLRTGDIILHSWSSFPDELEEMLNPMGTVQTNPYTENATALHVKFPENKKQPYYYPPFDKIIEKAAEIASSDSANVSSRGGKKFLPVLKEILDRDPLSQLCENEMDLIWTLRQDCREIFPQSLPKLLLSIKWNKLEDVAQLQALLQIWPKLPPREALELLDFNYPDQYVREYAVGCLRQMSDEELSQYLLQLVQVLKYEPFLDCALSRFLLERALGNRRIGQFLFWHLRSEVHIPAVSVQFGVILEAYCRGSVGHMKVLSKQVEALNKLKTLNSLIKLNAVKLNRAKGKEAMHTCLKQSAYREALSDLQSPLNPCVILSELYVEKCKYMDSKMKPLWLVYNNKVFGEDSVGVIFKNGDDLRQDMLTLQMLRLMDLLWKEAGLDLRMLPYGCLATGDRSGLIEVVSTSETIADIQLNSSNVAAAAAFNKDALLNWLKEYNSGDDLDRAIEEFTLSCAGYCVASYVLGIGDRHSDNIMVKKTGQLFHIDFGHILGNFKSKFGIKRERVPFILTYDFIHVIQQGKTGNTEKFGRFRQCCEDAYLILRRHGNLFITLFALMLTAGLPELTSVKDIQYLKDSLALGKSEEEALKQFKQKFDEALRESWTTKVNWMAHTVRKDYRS
T2 sequence (P27986 whole entry partner): as the sequence (P27986 whole entry partner) above

Row | IC50 [1] [µM] | IC50 [2] [µM] | SMILES
1 | > 1 | < 0.1 | O[C@H](c1ccc(Cl)cc1)c1nc(-c2ccncc2)sc1-c1nnc[nH]1 (single isomer, unassigned) [Compound 19, (4-chlorophenyl)[2-pyridin-4-yl-5-(1H-1,2,4-triazol-3-yl)-1,3-thiazol-4-yl]methanol]
2 | 0.1 to 1 | 0.1 to 1 | O[C@@H](c1ccc(Cl)cc1)c1cc(-c2ccnc(Cl)c2)sc1-c1nnc[nH]1 (single isomer, unassigned) [Compound 40]
3 | > 1 | 0.1 to 1 | Cc1cc(-c2cc([C@@H](O)c3ccc(Cl)cc3)c(-c3nnc[nH]3)s2)ccn1 (single isomer, unassigned) [Compound 69]
4 | > 1 | 0.1 to 1 | O[C@@H](c1ccc(Cl)cc1)c1nc(-c2ccncc2)sc1-c1nnc[nH]1 (single isomer, unassigned) [Compound 70, (4-chlorophenyl)[2-pyridin-4-yl-5-(1H-1,2,4-triazol-3-yl)-1,3-thiazol-4-yl]methanol]
5 | 0.1 to 1 | 0.1 to 1 | Cc1nn2ccc(CN)cc2c1-c1nc(Cc2ccc(Cl)cc2)c(-c2nnc[nH]2)s1 [Compound 1, 1-{3-[4-(4-chlorobenzyl)-5-(4H-1,2,4-triazol-3-yl)-1,3-thiazol-2-yl]-2-methylpyrazolo[1,5-a]pyridin-5-yl}methanamine]
6 | > 1 | > 1 | CC(=O)Nc1cc(-c2nc(Cc3ccccc3)c(-c3ncc[nH]3)s2)ccn1 [Compound 2, N-{4-[4-benzyl-5-(1H-imidazol-2-yl)-1,3-thiazol-2-yl]pyridin-2-yl}acetamide]
7 | > 1 | < 0.1 | N#Cc1cc(-c2cc([C@H](O)c3ccc(Cl)cc3)c(-c3nnc[nH]3)s2)ccn1 [Compound 3]
8 | 0.1 to 1 | 0.1 to 1 | Cc1nn2ccccc2c1-c1nc(Cc2ccc(Cl)cc2)c(-c2nnc[nH]2)s1 [Compound 4, 3-[4-(4-chlorobenzyl)-5-(4H-1,2,4-triazol-3-yl)-1,3-thiazol-2-yl]-2-methylpyrazolo[1,5-a]pyridine]
9 | > 1 | < 0.1 | Clc1ccc(Cc2cc(-c3ccncc3)sc2-c2nnc[nH]2)cc1 [Compound 5, 4-[4-(4-chlorobenzyl)-5-(4H-1,2,4-triazol-3-yl)-2-thienyl]pyridine]
10 | > 1 | 0.1 to 1 | COC(c1ccc(Cl)cc1)c1cc(-c2ccncc2)sc1-c1nnc[nH]1 (centres unmarked) [Compound 6, 4-[4-[(4-chlorophenyl)(methoxy)methyl]-5-(4H-1,2,4-triazol-3-yl)-2-thienyl]pyridine]
11 | > 1 | < 0.1 | Clc1ccc(Cc2nc(-c3ccncc3)sc2-c2nnc[nH]2)cc1Cl [Compound 7]
12 | > 1 | 0.1 to 1 | OCc1cc(-c2cc(C(O)c3ccc(Cl)cc3)c(-c3nnc[nH]3)s2)ccn1 (centres unmarked) [Compound 8]
13 | > 1 | < 0.1 | CN(C)C(c1ccc(Cl)cc1)c1cc(-c2ccncc2)sc1-c1nnc[nH]1 (centres unmarked) [Compound 9, 1-(4-chlorophenyl)-N,N-dimethyl-1-[5-pyridin-4-yl-2-(4H-1,2,4-triazol-3-yl)-3-thienyl]methanamine]
14 | 0.1 to 1 | 0.1 to 1 | OC(c1ccc(Cl)cc1)c1cc(-c2ccnc3[nH]ccc23)sc1-c1nnc[nH]1 (centres unmarked) [Compound 10]
15 | > 1 | < 0.1 | Cc1cc(-c2cc(C(O)c3ccc(Cl)cc3)c(-c3nnc[nH]3)s2)ccn1 (centres unmarked) [Compound 11]
16 | > 1 | 0.1 to 1 | N#Cc1c(-c2ccnc(N)c2)sc(-c2nnc[nH]2)c1Cc1ccc(Cl)cc1 [Compound 12, 2-(2-aminopyridin-4-yl)-4-(4-chlorobenzyl)-5-(4H-1,2,4-triazol-3-yl)thiophene-3-carbonitrile]
17 | < 0.1 | < 0.1 | OC(c1ccc(Cl)cc1)c1cc(-c2ccnc3ccsc23)sc1-c1nnc[nH]1 (centres unmarked) [Compound 13]
18 | 0.1 to 1 | < 0.1 | OC(c1ccc(Cl)cc1)c1cc(-c2ccnc(Cl)c2)sc1-c1nnc[nH]1 (centres unmarked) [Compound 14]
19 | > 1 | 0.1 to 1 | Clc1ccc(Cc2nc(-c3ccncc3)sc2-c2ncc[nH]2)cc1 [Compound 15, 4-(4-chlorobenzyl)-5-(1H-imidazol-2-yl)-2-(pyridin-4-yl)thiazole]

Row | IC50 [1] [µM] | IC50 [2] [µM] | SMILES
20 | > 1 | < 0.1 | OC(c1ccc(Cl)cc1)c1cc(-c2ccncc2F)sc1-c1nnc[nH]1 (centres unmarked) [Compound 16]
21 | > 1 | 0.1 to 1 | COc1cc(-c2cc(C(O)c3ccc(Cl)cc3)c(-c3nnc[nH]3)s2)ccn1 (centres unmarked) [Compound 17]
22 | > 1 | > 1 | Cc1cc(-c2nc(Cc3ccc(Cl)cc3)c(-c3nc[nH]n3)s2)ccn1 [Compound 18, 4-(4-Chlorobenzyl)-2-(2-methylpyridin-4-yl)-5-(4H-1,2,4-triazol-3-yl)thiazole]
23 | 0.1 to 1 | < 0.1 | COc1ccc(CNCc2ccn3nc(C)c(-c4nc(Cc5ccc(Cl)cc5)c(-c5nnc[nH]5)s4)c3c2)c(OC)c1 [Compound 20]
24 | > 1 | < 0.1 | OC(c1ccc(Cl)cc1)c1cc(-c2ccnc(F)c2)sc1-c1nnc[nH]1 (centres unmarked) [Compound 21, (4-chlorophenyl)[5-(2-fluoropyridin-4-yl)-2-(4H-1,2,4-triazol-3-yl)-3-thienyl]methanol]
25 | > 1 | > 1 | Clc1ccc(Cc2nc(-c3ccncc3)sc2-c2ccc[nH]2)cc1 [Compound 22, 4-(4-chlorobenzyl)-2-(pyridin-4-yl)-5-(1H-pyrrol-2-yl)thiazole]
26 | > 1 | 0.1 to 1 | Nc1nccc(-c2cc(C(O)c3ccc(Cl)cc3)c(-c3nnc[nH]3)s2)n1 (centres unmarked) [Compound 23]
27 | 0.1 to 1 | > 1 | CC(=O)Nc1cc(-c2nc(Cc3ccc(C)cc3)c(-c3ncc[nH]3)s2)ccn1 [Compound 24]
28 | > 1 | 0.1 to 1 | OC(c1ccc(Cl)cc1)c1cc(-c2ccncc2Cl)sc1-c1nc[nH]n1 (centres unmarked) [Compound 25]
29 | > 1 | 0.1 to 1 | O[C@@H](c1ccc(Cl)cc1)c1cc(-c2ccnc(F)c2)sc1-c1nnc[nH]1 [Compound 26]
30 | > 1 | 0.1 to 1 | Nc1cc(-c2nc(Cc3ccc(Cl)cc3)c(-c3ncn[nH]3)s2)ccn1 [Compound 27]
31 | 0.1 to 1 | 0.1 to 1 | OC(c1ccc(Cl)cc1)c1cc(-c2ccnc(-n3ccnc3)c2)sc1-c1nnc[nH]1 (centres unmarked) [Compound 28]
32 | < 0.1 | > 1 | CC(=O)Nc1cc(-c2nc(NC(=O)c3ccccc3)c(-c3ncc[nH]3)s2)ccn1 [Compound 29, N-(2-(2-acetamidopyridin-4-yl)-5-(1H-imidazol-2-yl)thiazol-4-yl)benzamide]
33 | 0.1 to 1 | < 0.1 | O[C@H](c1ccc(Cl)cc1)c1cc(-c2ccnc(Cl)c2)sc1-c1nnc[nH]1 [Compound 30]
34 | 0.1 to 1 | < 0.1 | Cc1nn2ccc(CN(CCN)Cc3ccncc3)cc2c1-c1nc(Cc2ccc(Cl)cc2)c(-c2nnc[nH]2)s1 [Compound 31]
35 | 0.1 to 1 | 0.1 to 1 | Cc1nn2ccc(CNCc3ccccc3)cc2c1-c1nc(Cc2ccc(Cl)cc2)c(-c2nnc[nH]2)s1 [Compound 32]
36 | > 1 | 0.1 to 1 | CC(C)NC(c1ccc(Cl)cc1)c1cc(-c2ccncc2)sc1-c1nnc[nH]1 (centres unmarked) [Compound 33]
37 | > 1 | 0.1 to 1 | Cc1noc(C)c1-c1cc(C(O)c2ccc(Cl)cc2)c(-c2nnc[nH]2)s1 (centres unmarked) [Compound 34]

Source: patent US8796268B2, “Heteroaryls and uses thereof” (Millennium Pharmaceuticals, Inc., priority 2010, dated 2014)
